The target of this assay is T1, cloned human H3 receptors (Homo sapiens, UniProt Q9Y5N1).
T1 construct: expressed in transfected cells; host or cells: SK-N-MC cells
T1 sequence (Q9Y5N1 whole entry): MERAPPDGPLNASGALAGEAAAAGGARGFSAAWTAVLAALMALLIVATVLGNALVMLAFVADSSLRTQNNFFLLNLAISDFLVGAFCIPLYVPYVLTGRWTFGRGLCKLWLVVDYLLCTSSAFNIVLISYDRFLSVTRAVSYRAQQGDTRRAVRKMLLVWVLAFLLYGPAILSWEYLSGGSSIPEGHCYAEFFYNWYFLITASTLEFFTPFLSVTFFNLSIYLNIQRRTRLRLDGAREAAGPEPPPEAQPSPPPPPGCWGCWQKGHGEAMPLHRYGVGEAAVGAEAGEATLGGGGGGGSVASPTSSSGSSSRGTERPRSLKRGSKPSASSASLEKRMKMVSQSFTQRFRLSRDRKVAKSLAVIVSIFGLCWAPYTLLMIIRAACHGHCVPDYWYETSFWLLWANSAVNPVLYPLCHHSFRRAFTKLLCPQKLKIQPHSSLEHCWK
Nature of the assay: H3 Receptor Binding (Human). To be noted: cloned human H3 receptors stably expressed in SK-N-MC cells; average of the results obtained. The protocol: Binding of compounds to the cloned human H3 receptors, stably expressed in SK-N-MC cells, was performed as described by Barbier, A. J. et al. (Br. J. Pharmacol. 2004, 143(5), 649-661). Data for compounds tested in this assay are presented in Table 1 as an average of the results obtained.
As to `O=C(c1ccc2c(c1)CCN(C(=O)c1ccc(Cl)cc1)C2)N1CCN(C2CCC2)CC1` [Example 105, [2-(4-Chloro-benzoyl)-1,2,3,4-tetrahydro-isoquinolin-6-yl]-(4-cyclobutyl-piperazin-1-yl)-methanone], affinity was put at a Ki of 0.016 µM.
Then `COc1ccc(C(=O)N2CCc3cc(C(=O)N4CCN(C5CCC5)CC4)ccc3C2)cc1` [Example 112, (4-Cyclobutyl-piperazin-1-yl)-[2-(4-methoxy-benzoyl)-1,2,3,4-tetrahydro-isoquinolin-6-yl]-methanone], with 0.02 µM; and `CN(C)[C@@H]1CCN(C(=O)c2ccc3c(c2)CCN(C(=O)C2CCCCC2)C3)C1` [Example 155, (R)-Cyclohexyl-[6-(3-dimethylamino-pyrrolidine-1-carbonyl)-3,4-dihydro-1H-isoquinolin-2-yl]-methanone], with 0.65 µM.
The compound `CO[C@H]1CC[C@H](C(=O)N2CCc3cc(C(=O)N4CCCN(C5CCC5)CC4)ccc3C2)CC1` [Example 147, trans-[6-(4-Cyclobutyl-[1,4]diazepane-1-carbonyl)-3,4-dihydro-1H-isoquinolin-2-yl]-(4-methoxy-cyclohexyl)-methanone] returned a Ki of 0.001 µM.
Consider `COc1ccccc1C(=O)N1CCc2cc(C(=O)N3CCN4CCCCC4C3)ccc2C1` (centres unmarked) [Example 92, [2-(2-Methoxy-benzoyl)-1,2,3,4-tetrahydro-isoquinolin-6-yl]-(octahydro-pyrido[1,2-a]pyrazin-2-yl)-methanone], for which the Ki turned out to be 0.023 µM.
As for `O=C(Cc1ccc(F)cc1)N1CCc2cc(C(=O)N3CCN(C4CCC4)CC3)ccc2C1` [Example 130, 1-[6-(4-Cyclobutyl-piperazine-1-carbonyl)-3,4-dihydro-1H-isoquinolin-2-yl]-2-(4-fluoro-phenyl)-ethanone], the Ki came out at 0.01 µM. Against the preceding compound, the Ki is about 2.3-fold lower.
`O=C(c1ccc2c(c1)CCN(C(=O)c1ccccc1)C2)N1CCN(C2CCCC2)CC1` [Example 65, (2-Benzoyl-1,2,3,4-tetrahydro-isoquinolin-6-yl)-(4-cyclopentyl-piperazin-1-yl)-methanone] gave an inhibition constant (Ki) of 0.1 µM.
As for `O=C(c1ccc2c(c1)CCN(C(=O)c1ccccc1Cl)C2)N1CCN(C2CCCCC2)CC1` [Example 75, [2-(2-Chloro-benzoyl)-1,2,3,4-tetrahydro-isoquinolin-6-yl]-(4-cyclohexyl-piperazin-1-yl)-methanone], the Ki was 0.077 µM.
In turn, `CC(C)(C)c1ccc(C(=O)N2CCc3cc(C(=O)N4CCN(C5CCC5)CC4)ccc3C2)cc1` [Example 131, [2-(4-tert-Butyl-benzoyl)-1,2,3,4-tetrahydro-isoquinolin-6-yl]-(4-cyclobutyl-piperazin-1-yl)-methanone] returned a Ki of 0.078 µM.
Then `O=C(c1ccc2c(c1)CCN(C(=O)c1cccc([N+](=O)[O-])c1)C2)N1CCN(C2CCC2)CC1` [Example 121, [6-(4-Cyclobutyl-piperazine-1-carbonyl)-3,4-dihydro-1H-isoquinolin-2-yl]-(3-nitro-phenyl)-methanone], with 0.005 µM; and `O=C(c1ccc2c(c1)CCN(C(=O)C1CCCCC1)C2)N1CCN(C2CCCCC2)CC1` [Example 160, Cyclohexyl-[6-(4-cyclohexyl-piperazine-1-carbonyl)-3,4-dihydro-1H-isoquinolin-2-yl]-methanone], with 0.084 µM.
Turning to `CC(C)(C)C(=O)N1CCc2cc(C(=O)N3CCC[C@H]3CN3CCCC3)ccc2C1` [Example 47, (S)-2,2-Dimethyl-1-[6-(2-pyrrolidin-1-ylmethyl-pyrrolidine-1-carbonyl)-3,4-dihydro-1H-isoquinolin-2-yl]-propan-1-one], the affinity, expressed as Ki, was 0.016 µM.
Then `O=C(C1CCCCC1)N1CCc2cc(CN3CCN4CCCCC4C3)ccc2C1` (centres unmarked) [Example 168, Cyclohexyl-[6-(octahydro-pyrido[1,2-a]pyrazin-2-ylmethyl)-3,4-dihydro-1H-isoquinolin-2-yl]-methanone], with 0.013 µM.
In turn, `CCC(=O)N1CCc2cc(C(=O)N3CCN(C4CCCC4)CC3)ccc2C1` [Example 63, 1-[6-(4-Cyclopentyl-piperazine-1-carbonyl)-3,4-dihydro-1H-isoquinolin-2-yl]-propan-1-one] gave a Ki of 0.061 µM.

Usually Ki stands for the dissociation constant of the complex between target and ligand, obtained from inhibition or displacement.

(Values after patent publication US20090099158A1, “TETRAHYDROISOQUINOLINE COMPOUNDS AS MODULATORS OF THE HISTAMINE H3 RECEPTOR” (priority 2007, published 2009).)
